{"source": "patent US20130072430A1", "about": "“METHODS FOR TREATMENT OR PROPHYLAXIS OF KIDNEY OR LIVER DYSFUNCTION” (NPS PHARMACEUTICALS, INC., priority 2010, published 2013)", "system": "Human patients with short bowel syndrome", "assay": "Example 1: kidney diagnostic biomarkers (urea nitrogen, creatinine, GFR) in short bowel syndrome patients, every four weeks for 24 weeks", "assay_type": "in vivo", "design": "CREATININE (RATE BLANKED) Change from Baseline, Median / GFR, Median / GFR Change from Baseline, Median / UREA NITROGEN, Median / UREA NITROGEN Change from Baseline, Median: unit not given here", "details": "for CREATININE (RATE BLANKED), Median: unit assumed", "method": "Human patients with short bowel syndrome were divided into three groups: a control group (16 total individuals) to receive placebo, an experimental group (35 total individuals) to receive teduglutide at 0.05 mg/kg/day throughout the study, and an experimental group (32 total individuals) to receive teduglutide at 0.1 mg/kg/day throughout the study. Patients were treated by subcutaneous injection of placebo or the appropriate dose of teduglutide. As individuals with short bowel syndrome are likely to experience associated liver and kidney disease, known biomarkers of liver and kidney function were monitored every four weeks, for 24 weeks. The liver biomarkers tested included total bilirubin, ALT and AST and ALP. The kidney biomarkers tested included urea nitrogen, creatinine and GFR. Before administration of placebo or teduglutide, diagnostic biomarker levels were tested to establish a baseline for each individual.\nTo visualize the effect of GLP-2 on the levels of the diagnostic biomarkers, the average change from baseline was calculated for the placebo and teduglutide treated groups for each visit after a baseline was established. The average change from baseline of each group is depicted in FIGS. […]. The numerical figures for each diaanostic biomarker at each time point are depicted in Table 1.\nThe raw data for this sorting is reproduced in Table 2 below.", "key": {"[1]": {"details": "Week 4, range <−5%, teduglutide 0.05 mg/kg/day"}, "[2]": {"details": "Week 4, range <−5%, teduglutide 0.1 mg/kg/day"}, "[3]": {"details": "Week 4, range >5%, teduglutide 0.05 mg/kg/day"}, "[4]": {"details": "Week 4, range >5%, teduglutide 0.1 mg/kg/day"}, "[5]": {"details": "Week 4, range −5%<= and <=5%, teduglutide 0.05 mg/kg/day"}, "[6]": {"details": "Week 4, range −5%<= and <=5%, teduglutide 0.1 mg/kg/day"}, "[7]": {"details": "Week 8, range <−5%, teduglutide 0.05 mg/kg/day"}, "[8]": {"details": "Week 8, range <−5%, teduglutide 0.1 mg/kg/day"}, "[9]": {"details": "Week 8, range >5%, teduglutide 0.05 mg/kg/day"}, "[10]": {"details": "Week 8, range >5%, teduglutide 0.1 mg/kg/day"}, "[11]": {"details": "Week 8, range −5%<= and <=5%, teduglutide 0.05 mg/kg/day"}, "[12]": {"details": "Week 8, range −5%<= and <=5%, teduglutide 0.1 mg/kg/day"}, "[13]": {"details": "Week 12, range <−5%, teduglutide 0.05 mg/kg/day"}, "[14]": {"details": "Week 12, range <−5%, teduglutide 0.1 mg/kg/day"}, "[15]": {"details": "Week 12, range >5%, teduglutide 0.05 mg/kg/day"}}}
{"smiles": "CC[C@H](C)[C@H](NC(=O)[C@H](Cc1ccccc1)NC(=O)[C@H](CC(=O)O)NC(=O)[C@H](CCCNC(=N)N)NC(=O)[C@H](C)NC(=O)[C@H](C)NC(=O)[C@H](CC(C)C)NC(=O)[C@H](CC(N)=O)NC(=O)[C@H](CC(=O)O)NC(=O)[C@H](CC(C)C)NC(=O)[C@@H](NC(=O)[C@@H](NC(=O)[C@H](CC(N)=O)NC(=O)[C@H](CCSC)NC(=O)[C@H](CCC(=O)O)NC(=O)[C@H](CC(=O)O)NC(=O)[C@H](CO)NC(=O)[C@H](Cc1ccccc1)NC(=O)[C@H](CO)NC(=O)CNC(=O)[C@H](CC(=O)O)NC(=O)CNC(=O)[C@@H](N)Cc1c[nH]cn1)[C@@H](C)O)[C@@H](C)CC)C(=O)N[C@@H](CC(N)=O)C(=O)N[C@@H](Cc1c[nH]c2ccccc12)C(=O)N[C@@H](CC(C)C)C(=O)N[C@H](C(=O)N[C@@H](CCC(N)=O)C(=O)N[C@H](C(=O)N[C@@H](CCCCN)C(=O)N[C@H](C(=O)N[C@H](C(=O)N[C@@H](CC(=O)O)C(=O)O)[C@@H](C)O)[C@@H](C)CC)[C@@H](C)O)[C@@H](C)CC", "note": "[teduglutide]", "values": [{"measurement": "GFR, Median", "setting": "0.10 mg/kg/day, DW20", "value": 76.1}, {"measurement": "UREA NITROGEN Change from Baseline, Mean (SD)", "setting": "0.10 mg/kg/day, DW20", "value": "−0.0 (1.60)"}, {"measurement": "UREA NITROGEN Change from Baseline, Median", "setting": "0.10 mg/kg/day, DW20", "value": "−0.1"}, {"measurement": "UREA NITROGEN, Mean (SD)", "setting": "0.10 mg/kg/day, DW20", "value": "6.3 (1.91)"}, {"measurement": "UREA NITROGEN, Median", "setting": "0.10 mg/kg/day, DW20", "value": 6.0}, {"measurement": "CREATININE (RATE BLANKED), Median", "setting": "0.10 mg/kg/day, DW20", "value": 88, "unit": "µmol/L"}, {"measurement": "CREATININE (RATE BLANKED) Change from Baseline, Mean (SD)", "setting": "0.10 mg/kg/day, DW24", "value": "−2.0 (13.18)"}, {"measurement": "CREATININE (RATE BLANKED) Change from Baseline, Median", "setting": "0.10 mg/kg/day, DW24", "value": 0.0}, {"measurement": "CREATININE (RATE BLANKED), Mean (SD)", "setting": "0.10 mg/kg/day, DW24", "value": "82.0 (22.35)"}, {"measurement": "GFR Change from Baseline, Mean (SD)", "setting": "0.10 mg/kg/day, DW24", "value": "4.6 (16.73)"}, {"measurement": "GFR Change from Baseline, Median", "setting": "0.10 mg/kg/day, DW24", "value": 2.3}, {"measurement": "GFR, Mean (SD)", "setting": "0.10 mg/kg/day, DW24", "value": "82.4 (27.05)"}, {"measurement": "GFR, Median", "setting": "0.10 mg/kg/day, DW24", "value": 81.1}, {"measurement": "UREA NITROGEN Change from Baseline, Mean (SD)", "setting": "0.10 mg/kg/day, DW24", "value": "−0.2 (1.87)"}, {"measurement": "UREA NITROGEN Change from Baseline, Median", "setting": "0.10 mg/kg/day, DW24", "value": 0.3}, {"measurement": "UREA NITROGEN, Mean (SD)", "setting": "0.10 mg/kg/day, DW24", "value": "6.1 (1.98)"}, {"measurement": "UREA NITROGEN, Median", "setting": "0.10 mg/kg/day, DW24", "value": 5.9}, {"measurement": "CREATININE (RATE BLANKED), Median", "setting": "0.10 mg/kg/day, DW24", "value": 81, "unit": "µmol/L"}, {"measurement": "CREATININE (RATE BLANKED) change from baseline: patients in range, n(%)", "setting": "[1]", "value": "7(20.0%)"}, {"measurement": "GFR change from baseline: patients in range, n(%)", "setting": "[1]", "value": "13(37.1%)"}, {"measurement": "UREA NITROGEN change from baseline: patients in range, n(%)", "setting": "[1]", "value": "16(45.7%)"}, {"measurement": "CREATININE (RATE BLANKED) change from baseline: patients in range, n(%)", "setting": "[2]", "value": "12(37.5%)"}, {"measurement": "GFR change from baseline: patients in range, n(%)", "setting": "[2]", "value": "7(21.9%)"}, {"measurement": "UREA NITROGEN change from baseline: patients in range, n(%)", "setting": "[2]", "value": "10(31.3%)"}, {"measurement": "CREATININE (RATE BLANKED) change from baseline: patients in range, n(%)", "setting": "[3]", "value": "14(40.0%)"}, {"measurement": "GFR change from baseline: patients in range, n(%)", "setting": "[3]", "value": "8(22.9%)"}, {"measurement": "UREA NITROGEN change from baseline: patients in range, n(%)", "setting": "[3]", "value": "7(20.0%)"}, {"measurement": "CREATININE (RATE BLANKED) change from baseline: patients in range, n(%)", "setting": "[4]", "value": "7(21.9%)"}, {"measurement": "GFR change from baseline: patients in range, n(%)", "setting": "[4]", "value": "14(43.8%)"}, {"measurement": "UREA NITROGEN change from baseline: patients in range, n(%)", "setting": "[4]", "value": "15(46.9%)"}, {"measurement": "CREATININE (RATE BLANKED) change from baseline: patients in range, n(%)", "setting": "[5]", "value": "9(25.7%)"}, {"measurement": "GFR change from baseline: patients in range, n(%)", "setting": "[5]", "value": "9(25.7%)"}, {"measurement": "UREA NITROGEN change from baseline: patients in range, n(%)", "setting": "[5]", "value": "7(20.0%)"}, {"measurement": "CREATININE (RATE BLANKED) change from baseline: patients in range, n(%)", "setting": "[6]", "value": "13(40.6%)"}, {"measurement": "GFR change from baseline: patients in range, n(%)", "setting": "[6]", "value": "11(34.4%)"}, {"measurement": "UREA NITROGEN change from baseline: patients in range, n(%)", "setting": "[6]", "value": "7(21.9%)"}, {"measurement": "CREATININE (RATE BLANKED) change from baseline: patients in range, n(%)", "setting": "[7]", "value": "11(31.4%)"}, {"measurement": "GFR change from baseline: patients in range, n(%)", "setting": "[7]", "value": "9(25.7%)"}, {"measurement": "UREA NITROGEN change from baseline: patients in range, n(%)", "setting": "[7]", "value": "14(40.0%)"}, {"measurement": "CREATININE (RATE BLANKED) change from baseline: patients in range, n(%)", "setting": "[8]", "value": "8(25.0%)"}, {"measurement": "GFR change from baseline: patients in range, n(%)", "setting": "[8]", "value": "9(28.1%)"}, {"measurement": "UREA NITROGEN change from baseline: patients in range, n(%)", "setting": "[8]", "value": "9(28.1%)"}, {"measurement": "CREATININE (RATE BLANKED) change from baseline: patients in range, n(%)", "setting": "[9]", "value": "10(28.6%)"}, {"measurement": "GFR change from baseline: patients in range, n(%)", "setting": "[9]", "value": "12(34.3%)"}, {"measurement": "UREA NITROGEN change from baseline: patients in range, n(%)", "setting": "[9]", "value": "10(28.6%)"}, {"measurement": "CREATININE (RATE BLANKED) change from baseline: patients in range, n(%)", "setting": "[10]", "value": "13(40.6%)"}, {"measurement": "GFR change from baseline: patients in range, n(%)", "setting": "[10]", "value": "9(28.1%)"}, {"measurement": "UREA NITROGEN change from baseline: patients in range, n(%)", "setting": "[10]", "value": "15(46.9%)"}, {"measurement": "CREATININE (RATE BLANKED) change from baseline: patients in range, n(%)", "setting": "[11]", "value": "8(22.9%)"}, {"measurement": "GFR change from baseline: patients in range, n(%)", "setting": "[11]", "value": "7(20.0%)"}, {"measurement": "UREA NITROGEN change from baseline: patients in range, n(%)", "setting": "[11]", "value": "5(14.3%)"}, {"measurement": "CREATININE (RATE BLANKED) change from baseline: patients in range, n(%)", "setting": "[12]", "value": "10(31.3%)"}, {"measurement": "GFR change from baseline: patients in range, n(%)", "setting": "[12]", "value": "13(40.6%)"}, {"measurement": "UREA NITROGEN change from baseline: patients in range, n(%)", "setting": "[12]", "value": "7(21.9%)"}, {"measurement": "CREATININE (RATE BLANKED) change from baseline: patients in range, n(%)", "setting": "[13]", "value": "7(20.0%)"}, {"measurement": "GFR change from baseline: patients in range, n(%)", "setting": "[13]", "value": "15(42.9%)"}, {"measurement": "UREA NITROGEN change from baseline: patients in range, n(%)", "setting": "[13]", "value": "17(48.6%)"}, {"measurement": "CREATININE (RATE BLANKED) change from baseline: patients in range, n(%)", "setting": "[14]", "value": "9(28.1%)"}, {"measurement": "GFR change from baseline: patients in range, n(%)", "setting": "[14]", "value": "11(34.4%)"}, {"measurement": "UREA NITROGEN change from baseline: patients in range, n(%)", "setting": "[14]", "value": "13(40.6%)"}, {"measurement": "CREATININE (RATE BLANKED) change from baseline: patients in range, n(%)", "setting": "[15]", "value": "16(45.7%)"}, {"measurement": "GFR change from baseline: patients in range, n(%)", "setting": "[15]", "value": "6(17.1%)"}, {"measurement": "UREA NITROGEN change from baseline: patients in range, n(%)", "setting": "[15]", "value": "6(17.1%)"}]}
